Values joined by “and” are separate entries in the source; they are usually repeats but may differ in a detail not shown here. Identical values can stand only once. Like-named read-outs stand apart in the source and are kept apart here.
Experiments:
[1] = Plasma protein binding by equilibrium dialysis, mouse; format: in vitro ADME; conditions: performed at 0.5 μM, read-out: Protein Binding, Mouse plasma (FU)
Experimental: (§1) The in silico ADME characterization has recently been reported for NAPRT inhibitors 1, 15 and 16, belonging to different chemotypes, and the results indicated promising pharmacokinetic features for the studied compounds [17]. With the aim to preliminarily shed light on the pharmacokinetics of this series of compounds, 18 was evaluated for its in vitro ADME profile. Kinetic solubility at pH 7.4, plasma protein binding from human and mouse species determined by using equilibrium dialysis, intrinsic hepatic clearance determined in human and mouse liver microsomes, and permeability studies in MDCKII (Madin–Darby canine kidney cells, a cell strain derived from the distal tubule or collecting duct of the nephron) and MDCKII-MDR1 (MDCK II cells overexpressing the multidrug resistance protein 1, MDR1) cell lines were performed according to previously reported procedures. Both cell lines were originally obtained from American Type Culture Collection (ATCC) and have been cultured and amplified with respect to permeability assessment at the test site.

Human recombinant NAPRT [2] = target: T1, Human recombinant NAPRT (Homo sapiens, UniProt Q6XQN6); experiment: HPLC-based NAPRT activity screening assay; format: biochemical
T1 construct: made in house
T1 sequence (Q6XQN6 1-538): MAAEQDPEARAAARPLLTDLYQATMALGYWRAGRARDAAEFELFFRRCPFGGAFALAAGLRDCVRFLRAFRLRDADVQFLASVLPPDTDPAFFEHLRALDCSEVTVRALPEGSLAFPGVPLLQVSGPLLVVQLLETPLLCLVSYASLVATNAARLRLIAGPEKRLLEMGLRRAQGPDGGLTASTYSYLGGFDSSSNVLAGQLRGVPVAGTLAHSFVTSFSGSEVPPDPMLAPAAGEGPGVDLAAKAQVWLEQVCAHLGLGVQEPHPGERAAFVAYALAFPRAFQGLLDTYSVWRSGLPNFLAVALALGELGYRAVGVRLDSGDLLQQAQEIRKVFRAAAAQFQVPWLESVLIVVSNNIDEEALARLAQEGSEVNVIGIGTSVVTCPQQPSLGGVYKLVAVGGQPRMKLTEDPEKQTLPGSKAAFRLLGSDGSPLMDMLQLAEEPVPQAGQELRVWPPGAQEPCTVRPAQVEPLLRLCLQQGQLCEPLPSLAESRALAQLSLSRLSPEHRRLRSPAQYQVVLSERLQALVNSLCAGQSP

[3] = Plasma protein binding by equilibrium dialysis, human; format: in vitro ADME; conditions: performed at 0.5 μM, read-out: Protein Binding, Human plasma (FU)
Experimental: as §1

[4] = Hepatic intrinsic clearance in mouse liver microsomes; format: in vitro ADME
Experimental: as §1

Human recombinant NAPRT [5] = target: T1, Human recombinant NAPRT; experiment: Kinetic analyses of NAPRT inhibition (HPLC assay, Lineweaver–Burk plot); format: biochemical
[6] = Permeability in MDCKII cells; format: in vitro ADME, canine; conditions: dog, MDCK
Experimental: as §1

MDR1 = experiment: Permeability in MDCKII-MDR1 cells; format: in vitro ADME, canine; conditions: dog, MDCK-MDR1
Experimental: as §1

MDCKII-MDR1 = experiment: Permeability in MDCKII-MDR1 cells; format: in vitro ADME, canine; conditions: from efflux ratio in MDCKII-MDR1
Experimental: as §1

[7] = Kinetic solubility at pH 7.4; format: physicochemical; conditions: pH 7.4, aqueous buffer, kinetic from dmso stock
Experimental: as §1

[8] = Hepatic intrinsic clearance in human liver microsomes; format: in vitro ADME
Experimental: as §1

Which results are given for `CC(=O)Nc1cccc(CNc2ccc3c(c2)nc(C)n3C)c1` [Compound 18, N-(3-(((1,2-dimethyl-1H-benzo[d]imidazol-5-yl)amino)methyl)phenyl)acetamide]?
fraction unbound at 0.5 μM [1]: > 0.5; Effect on NAPRT catalytic activity (in words) (Human recombinant NAPRT [2]): inhibit NAPRT activity; -Fold Stimulation (not active class) (Human recombinant NAPRT [2]; 1 mM compound, 0.2 mM NA, 0.4 mM PRPP): - (Not active, it is referred to compounds showing less than 10% inhibition or less than 1.10-fold stimulation); inhibition at 1000 µM (Human recombinant NAPRT [2]; 1 mM compound, 0.2 mM NA, 0.4 mM PRPP, read-out: % Inhibition): 46.1 ± 8.1%; fraction unbound at 0.5 μM [3]: 0.146; Mouse Cli ([4]; mouse liver microsomes): 120 µL/min/mg protein; WSM in vivo prediction ([4]; mouse, well-stirred model): 26.9 mL/min/kg; Inhibition mechanism towards NA (Human recombinant NAPRT [5]): noncompetitive; Inhibition mechanism towards PRPP (Human recombinant NAPRT [5]): mixed; Ki (Human recombinant NAPRT [5]; NA 25 µM to 100 µM at 0.4 mM PRPP, noncompetitive, read-out: Ki towards NA): 338 µM; Ki (Human recombinant NAPRT [5]; PRPP 25 µM to 100 µM at 0.4 mM NA, mixed, read-out: Ki towards PRPP): 134 µM; Papp A→B ([6]; apical to basolateral): 3.83 ×10⁻⁶ cm/s; Papp B→A ([6]; basolateral to apical): 6.59 ×10⁻⁶ cm/s; efflux ratio ([6]; read-out: Efflux Ratio MDCKII (B-A/A-B)): 1.7; Papp A→B (MDR1; apical to basolateral): 0.339 ×10⁻⁶ cm/s; Papp B→A (MDR1; basolateral to apical): 17.4 ×10⁻⁶ cm/s; efflux ratio (MDR1; read-out: Efflux Ratio MDCKII-MDR1 (B-A/A-B)): 51.3; P-gp substrate status (MDCKII-MDR1): P-gp substrate; solubility kinetic [7]: 312 µM and 130 µg/mL; Human Cli ([8]; human liver microsomes): <9.92 µL/min/mg protein; WSM in vivo prediction ([8]; human, well-stirred model): 6.83 mL/min/kg

Source: paper PMC9967085, “Properly Substituted Benzimidazoles as a New Promising Class of Nicotinate Phosphoribosyltransferase (NAPRT) Modulators” (Pharmaceuticals, 2023)
